Laboratory results as given in patent publication US11826431B2, “Polypeptide-based ocular absorption enhancer and application thereof” (Fudan University, priority 2017, dated 2023).
Where a SMILES comes first, the peptide text is derived from it. The star is where a group is joined. 5FAM = O=C1OC2(c3ccc(O)cc3Oc3cc(O)ccc32)c2ccc(C(=O)*)cc21

Assays:
[1] = Intraocular distribution of penetratin derivative-FAM complexes after conjunctival sac administration; type: in vivo, mice
Procedure: Evaluation of intraocular distribution of the covalently linked complex of Penetratin derivatives and small molecules: 5 μL of a solution of complex of penetratin derivative and FAM (concentration 30 μM) was dripped into the conjunctival sac of male mice, and the eyelids were gently closed to distribute the solution evenly. The solution was administered every 10 minutes for a total of 3 times, and taking the time of the last administration as zero time. At a preset time point, mice were killed by intraperitoneal injection of excessive chloral hydrate, and the eyeballs of the mice were removed, fixed with Davidson's solution for 0.5 h, and embedded. Frozen longitudinal sections of eyeballs were prepared and the nuclei were stained with DAPI, and the distribution of polypeptides in the eye parts was observed under an inverted fluorescence microscope.

[2] = In vitro tissue permeability, isolated cornea (diffusion cells); type: in vitro ADME, rabbit
Procedure: (§1) Evaluation of in vitro tissue permeability of the covalently linked complex of Penetratin derivatives and small molecular substances: the experimental rabbits were anesthetized with pentobarbital sodium (30 mg/kg), which is injected via ear vein, and sacrificed by injection with excessive chloral hydrate (150 mg/kg). After separation of the conjunctiva, carefully removed the entire eyeball, make a circumcision at about 2 mm from the limbus of cornea and remove the cornea, and removed the iris and other tissues to obtain an experimental cornea. The rest of the eyeballs were removed from the retina and other tissues to obtain an experimental sclera. Both the cornea and sclera were carefully washed with Ringer's solution 3 times before use. The experiment was started within 30 min after the animals were sacrificed. The freshly isolated cornea and sclera were carefully sandwiched between two diffusion cells, with the epithelial surface facing a diffusion cell (supply cell) on the left, the diffusion window diameter was 10.25 mm, and the diffusion area was 0.825 cm^2. 3.5 mL of Ringer's solutions were added to the supply cell and a receiving cell on the right, respectively. Circulating water was passed therein, and the water temperature was kept at 34° C.±0.5° C. […] Immediately after the experiment, the fluorescence intensity of the sample was measured. […]

[3] = In vitro tissue permeability, isolated sclera (diffusion cells); type: in vitro ADME, rabbit
Procedure: as §1

[4] = 10 min after conjunctival sac administration (FIG. 6B)
[5] = 7.5 μM complex with FAM, 34° C.
[6] = DAPI stained frozen sections after permeability experiment

For `C[C@H](NC(=O)[C@H](C)NC(=O)[C@H](CCCCN)NC(=O)[C@H](C)NC(=O)[C@H](CCC(N)=O)NC(=O)[C@@H](N)CCCNC(=N)N)C(=O)N[C@@H](C)C(=O)N[C@@H](CCC(N)=O)C(=O)N[C@@H](CC(N)=O)C(=O)N[C@@H](CCCNC(=N)N)C(=O)N[C@@H](CCCNC(=N)N)C(=O)N[C@@H](C)C(=O)N[C@@H](CCCCN)C(=O)N[C@@H](C)C(=O)N[C@@H](CCCCN)C(=O)N[C@@H](CCCCN)C(=O)N[C@@H](CCCCNC(=O)c1ccc2c(c1)C(=O)OC21c2ccc(O)cc2Oc2cc(O)ccc21)C(=O)O` [6A, RQAKAAAQNRRAKAKKK-FAM] (H-RQAKAAAQNRRAKAKKK(5FAM)-OH), the “distribution in the cornea” value [1, 4] was “significantly less distributed”, the “distribution in the retina” value [1, 4] was “less distributed” and the “FAM fluorescence signal in anterior and posterior segment of the eye compared with wild-type penetratin” value ([1]; 10 minutes after eye drops, 30 μM, 5 μL x 3) was “weakened”. For the same compound, the “amount entering the eye (cornea and retina) compared with wild-type penetratin” value ([1]; semi-quantitative analysis (FIG. 6C)) was “significantly less”, the “Papp value relative to wild-type penetratin, isolated cornea” value [2, 5] was “⅕” and the “fluorescence in isolated cornea sections compared with wild-type penetratin group” value [2, 6] was “no obvious fluorescence signal”. For the same compound, the “Papp value relative to wild-type penetratin, isolated sclera” value [3, 5] was “⅔” and the “fluorescence signal in isolated sclera sections compared with wild-type penetratin group” value [3, 6] was “significantly weaker”.
